{"source": "patent US10570458B2", "about": "“Methods for diagnosis, prognosis and treatment of primary and metastatic basal-like breast cancer and other cancer types” (ONCONOSTIC TECHNOLOGIES, INC., priority 2009, dated 2020)", "molecules": {"B1": {"name": "Wnt3a: a canonical Wnt signaling ligand (protein, UniProt P56704 19-352, looked up)", "Protein Wnt-3a": "SYPIWWSLAVGPQYSSLGSQPILCASIPGLVPKQLRFCRNYVEIMPSVAEGIKIGIQECQHQFRGRRWNCTTVHDSLAIFGPVLDKATRESAFVHAIASAGVAFAVTRSCAEGTAAICGCSSRHQGSPGKGWKWGGCSEDIEFGGMVSREFADARENRPDARSAMNRHNNEAGRQAIASHMHLKCKCHGLSGSCEVKTCWWSQPDFRAIGDFLKDKYDSASEMVVEKHRESRGWVETLRPRYTYFKVPTERDLVYYEASPNFCEPNPETGSFGTRDRTCNVSSHGIDGCDLLCCGRGHNARAERRREKCRCVFHWCCYVSCQECTRVYDVHTCK"}}, "key": {"MCF-7 cells": {"tested_on": "MCF-7 cells", "experiment": "MTT cell proliferation assay, FOXC1-overexpressing vs control cells", "assay_type": "cell-based, human", "procedure": "MCF-7 and T47D human breast cancer cell lines were obtained from the Breast Center at Baylor College of Medicine. Cells were routinely maintained in Dulbecco's modified Eagle's medium (DMEM) supplemented with 10% fetal bovine serum (FBS), 2 mM glutamine, 50 IU/ml of penicillin, 50 μg/ml of streptomycin, and 10 μg/ml insulin. Cells were kept at 37° C. in a humidified incubator with 5% CO2. Tamoxifen and 17β-estradiol were from Sigma (St Louis, Mo.). The IKK small molecule inhibitor BMS-345541 was purchased from Calbiochem (Gibbstown, N.J.). For experiments involving estradiol and tamoxifen, cells were serum-starved overnight and then stimulated with the ER ligands for different time periods prior to cell proliferation assays. Cell viability was assessed by the 3-(4,5-dimethylthiazol-2-yl)-2,5-diphenyltetrazolium (MTT) assay. Cells were seeded in 24-well plates at 30% confluence and the MTT assay was performed one, two, three and four days after treatment. For each assay, 50 μl of MTT (5 mg/ml) were added to each well and cells were incubated at 37° C. for an additional 4 h. After centrifugation, the supernatant was carefully aspirated and 300 μl of DMSO (Sigma) were added to each well. Immediately after resolubilization, all plates were scanned at 575 nm on a microplate reader. The absorbance (A) value represented the number of live cells."}, "[1]": {"tested_on": "ERα, PR, and IRS-1 in FOXC1-overexpressing MCF-7 cells", "experiment": "Immunoblotting of ERα, PR and IRS-1", "assay_type": "cell-based, human", "details": "5 μM, 24 h", "procedure": "Whole cell lysates for western blotting were generated by cell lysis buffer (50 mM Tris-HCl, pH 7.4, 150 mM NaCl, 2 mM EDTA, 1% NP-40, 10% glycerol) supplemented with a protease inhibitor cocktail (Sigma, St Louis, Mo.). Equal amounts of protein were separated by 10% SDS-PAGE and then transferred onto a nitrocellulose membrane. The remaining steps were conducted according to a standard immunoblotting protocol (Qu et al., 2009). Immunoblotting was done with polyclonal antibodies against p65, FOXC1, IRS1 (1:200; Santa Cruz Biotechnology), polyclonal antibodies against phospho-p65, p50, IκBα (1:1000; Cell Signal), or monoclonal antibodies against ERα (1:500; Novocastra Laboratories, Newcastle upon Tyne, UK), PR (1:500; DAKO, Carpinteria, Calif.). Anti-β actin (Sigma) was used at a 1:10000 dilution. After the primary antibody incubation, the membrane was again washed with PBST three times (5 min each) and then incubated with a horseradish peroxidase (HRP)-linked secondary antibody (Amersham, Piscataway, N.J.) at a dilution of 1:4000 in blocking solution. The membrane was washed and bands were visualized using chemiluminescence assays."}, "triple-negative patients": {"tested_on": "triple-negative patients", "details": "patients were a mix of basal-like positive and negative; cited from earlier work"}, "[2]": {"tested_on": "HS578T basal-like/claudin-low cells", "experiment": "Cell viability (relative survival) with increasing doses of iCRT3", "assay_type": "cell-based, human", "details": "HS578T (high constitutive FOXC1 expressor) compared to MCF7 (luminal) or SKBR3 (HER2) cell lines", "excerpt": "(§1) FIGS. 45A-45B show the relative survival of representative breast cancer cell lines upon inhibition of Wnt/β catenin signaling with increasing doses of the inhibitor iCRT3."}, "[3]": {"tested_on": "BT549 basal-like/claudin-low cells", "experiment": "Cell viability (relative survival) with increasing doses of iCRT3", "assay_type": "cell-based, human", "details": "BT549 (high constitutive FOXC1 expressor) compared to MCF7 (luminal) or SKBR3 (HER2) cell lines", "excerpt": "as §1"}, "[4]": {"tested_on": "stem related genes and NF-κB signaling in BT549 mammosphere cells", "experiment": "qRT-PCR profiling of residual mammosphere cells after Wnt inhibition", "assay_type": "cell-based, human", "excerpt": "FIG. 48 is a bar graph showing the fold change of mRNA expression of the stem related genes BMI-1, FOXC1, KIT, NANOG, OCT4, and SOX2 upon inhibition of Wnt/β catenin signaling by addition of iCRT-3 on day 4 (left hand bar) and day 7 (right hand bar)."}, "[5]": {"tested_on": "BT549 cancer stem cells in mammosphere culture", "experiment": "Mammosphere formation", "assay_type": "cell-based, human", "excerpt": "FIGS. 47A-47B show mammosphere formation upon inhibition of Wnt/β catenin signaling by iCRT-3.\nFIGS. 49A-49B show mammosphere formation upon simultaneous inhibition of Wnt/β catenin signaling by addition of iCRT-3 and inhibition of NF-κB signaling."}, "FOXC1 expression": {"tested_on": "FOXC1 expression", "experiment": "FOXC1 expression upon inhibition of Wnt/β catenin signaling", "assay_type": "cell-based, human", "details": "Wnt inhibition, dose and time dependent, particularly pronounced in BT549 mammosphere cultures"}, "[6]": {"tested_on": "FOXC1 expression in MDA-MB-231 basal-like/claudin-low cell line", "experiment": "FOXC1 expression upon exposure to Wnt3a", "assay_type": "cell-based, human", "details": "MDA-MB-231 (low constitutive FOXC1 expressor) exposed to canonical Wnt ligand", "excerpt": "FIGS. 44A-44D show the correlation between FOXC1 expression and Wnt activity upon biological and pharmacologic inhibition and stimulation with a natural ligand."}}, "note": "Entries after “also recorded” stand apart in the source; their conditions may differ.", "data": [{"molecule": "Cc1ccc2nc(NCCN)c3ncc(C)n3c2c1", "note": "[BMS-345541]", "values": [{"measurement": "sensitivity of cell proliferation to NF-κB inhibition", "setting": "MCF-7 cells; FOXC1-overexpressing vs vector MCF-7 cells, 5 μM", "value": "sensitized"}, {"measurement": "levels of ERα, PR, and IRS-1", "setting": "[1]", "value": "elevated levels"}]}, {"molecule": "CC(C)C[C@H](NC(=O)[C@H](Cc1ccccc1)NC(=O)c1cnccn1)B(O)O", "note": "[bortezomib]", "values": [{"measurement": "outcome of clinical trial", "setting": "triple-negative patients", "value": "inconclusive results"}]}, {"molecule": "C[C@]12CC[C@@H]3c4ccc(O)cc4CC[C@H]3[C@@H]1CC[C@@H]2O", "note": "[estradiol, 17β-estradiol]", "values": [{"measurement": "increase of cell growth induced by treatment", "setting": "MCF-7 cells; FOXC1-overexpressing vs control MCF-7 cells, serum-starved, 10^−8 M", "value": "diminished the increase of cell growth"}]}, {"molecule": "CCc1ccc(-c2nc(CSCC(=O)NCCc3ccccc3)c(C)o2)cc1", "note": "[iCRT3, 2-[[[2-(4-ethylphenyl)-5-methyl-4-oxazolyl]methyl]thio]-N-(2-phenylethyl)acetamide]", "values": [{"measurement": "sensitivity to treatment (decreased cell viability)", "setting": "[2]", "value": "more sensitive"}, {"measurement": "sensitivity to treatment (decreased cell viability)", "setting": "[3]", "value": "more sensitive"}, {"measurement": "FOXC1 positive cells", "setting": "[4]; cells persisting after Wnt inhibition", "value": "depletion of FOXC1 positive cells"}, {"measurement": "expression of embryonic stem cell transcription factors OCT4, SOX2 and NANOG", "setting": "[4]; cells persisting after Wnt inhibition (day 4, day 7)", "value": "pronounced up regulation"}, {"measurement": "NF-κB signaling (qRT-PCR based pathway activation analysis)", "setting": "[4]; residual cells that withstood Wnt inhibition", "value": "marked activation of NF-κB signaling"}, {"measurement": "mammosphere formation ability of persisting cells", "setting": "[5]; BT549, Wnt inhibition alone, after an initial 4 day incubation period", "value": "renewed enhancement of mammosphere formation ability"}, {"measurement": "mammosphere formation efficiency", "setting": "[5]; BT549 cells, Wnt inhibition alone vs DMSO", "value": "reduced mammosphere formation efficiency"}, {"measurement": "FOXC1 expression level", "setting": "FOXC1 expression", "value": "decrease in FOXC1 expression level"}, {"measurement": "FOXC1 expression level", "setting": "FOXC1 expression; listed as iCRT-3", "value": "decreased FOXC1 expression"}]}, {"molecule": "CC/C(=C(\\c1ccccc1)c1ccc(OCCN(C)C)cc1)c1ccccc1", "note": "[tamoxifen]", "values": [{"measurement": "sensitivity of cell proliferation to antiestrogen treatment", "setting": "MCF-7 cells; FOXC1-overexpressing vs control MCF-7 cells, 10^−6 M, regular medium", "value": "less sensitive"}]}, {"molecule": "B1", "values": [{"measurement": "FOXC1 expression", "setting": "[6]", "value": "increased expression of FOXC1; also recorded: increase in FOXC1 expression"}]}]}
